This is an account of results in US20060171912A1, “Diiodomethyl-p-tolylsulfone as a particulate dispersion in a liquid solvent” (priority 2005, published 2006).

Structures are written as SMILES. Like-named read-outs stand apart in the source and are kept apart here.

Data set [1] has as its system Malassezia furfur (ATCC 14521). The experiment in a line: Minimum Inhibitory Concentration (MIC) agar dilution test. It is filed as cell-based. The settings on record: for MIC: M. furfur, mDixon agar, 30°, 4-5 days; for Retained Activity: dispersed particle form (in water) vs. dissolved in an effective solvent (DMSO). The procedure:
^1The Minimum Inhibitory Concentration is indicative of anti-fungal efficacy. Generally, the lower the value of the composition, the better its anti-fungal efficacy, due to increased inherent ability of the anti-dandruff agent to inhibit the growth of microorganisms.
Malassezia furfur was grown in a flask containing mDixon medium (see E. Gueho, et al. Antoinie Leeuwenhoek (1996), no. 69, 337-55, which description is incorporated by reference herein). Dilutions of solubilized anti-microbial active were then added to test tubes containing molten mDixon agar. M. furfur inoculum was added to each tube of molten agar, the tube vortexed, and the contents poured into separate sterile petri dishes. […] The lowest tested dilution of anti-microbial active that yields no growth is defined as the Minimal Inhibitory Concentration (MIC).
Experimental Procedure • 1) Malassezia furfur was grown in a 125 ml Erlenmeyer flask containing 50 ml “mDIXON” medium at 200 rpm and 30° C. until turbid. • 2) Selected dilutions were prepared using an appropriate dilution series, of the anti-microbial active or combination in solvent, which allowed the sample active to be solubilized prior to addition to the final test agar. For each concentration of the ZPT samples, the solvent was “DMSO”; for other samples, the solvent was water or “DMSO” or other suitable solvent. • 3) 0.25 ml dilutions of anti-microbial active were added to test tubes containing 9.5 ml molten “mDIXON” agar (held at 45° C. in a water bath). • 4) 0.25 M. furfur inoculum (adjusted to 5×10^5 cfu/ml by direct count) was added to each test tube of molten agar. • 5) Each tube was vortexed, and the contents poured into separate petri dishes. • 6) After the agar solidified, the plates inverted and incubated at 30° for 4-5 days. • 7) The plates were then observed for visible M. furfur growth. Particle Size Determination Method
Background: In agar dilution, organisms are placed on agar that contains the substance at set levels.

The conditions of data set [2]: cited from earlier work.

Turning to `Cc1ccc(S(=O)(=O)C(I)I)cc1` [diiodomethyl-p-tolylsulfone, Diiodomethyl-p-tolylsulfone], the MIC in data set [1] (Dispersed in Water) is 2.0 ppm; in data set [1] (Malassezia furfur, ATCC14521, Dissolved in DMSO, read-out: MIC) it was 2 µg/mL. The entries for the “Retained Activity” value in data set [1], in data set [1] (listed as AMICAL 48) and in data set [1] (listed as Diiodomethyl-p-tolylsulfone) were “about 100%”, 100% and 100%, respectively. For the same molecule, the water solubility entry in data set [2] is on record as “less than 5 ppm”.
